According to patent US20260028365A1 (BIOGEN MA INC., priority 2022, published 2026):

Experiments:
[1] = target: JH2 domain of human Tyk2 (Homo sapiens (Human), UniProt P29597); experiment: JH2 Biochemical Assay (TR-FRET probe displacement); assay type: binding; conditions: TR-FRET probe displacement, JH2 domain
[2] = target: Tyk2 (Homo sapiens (Human), UniProt P29597); experiment: pSTAT4 Cell Assay (MSD, NK92 cells); assay type: cell-based
Sequence of Tyk2 (P29597 whole entry): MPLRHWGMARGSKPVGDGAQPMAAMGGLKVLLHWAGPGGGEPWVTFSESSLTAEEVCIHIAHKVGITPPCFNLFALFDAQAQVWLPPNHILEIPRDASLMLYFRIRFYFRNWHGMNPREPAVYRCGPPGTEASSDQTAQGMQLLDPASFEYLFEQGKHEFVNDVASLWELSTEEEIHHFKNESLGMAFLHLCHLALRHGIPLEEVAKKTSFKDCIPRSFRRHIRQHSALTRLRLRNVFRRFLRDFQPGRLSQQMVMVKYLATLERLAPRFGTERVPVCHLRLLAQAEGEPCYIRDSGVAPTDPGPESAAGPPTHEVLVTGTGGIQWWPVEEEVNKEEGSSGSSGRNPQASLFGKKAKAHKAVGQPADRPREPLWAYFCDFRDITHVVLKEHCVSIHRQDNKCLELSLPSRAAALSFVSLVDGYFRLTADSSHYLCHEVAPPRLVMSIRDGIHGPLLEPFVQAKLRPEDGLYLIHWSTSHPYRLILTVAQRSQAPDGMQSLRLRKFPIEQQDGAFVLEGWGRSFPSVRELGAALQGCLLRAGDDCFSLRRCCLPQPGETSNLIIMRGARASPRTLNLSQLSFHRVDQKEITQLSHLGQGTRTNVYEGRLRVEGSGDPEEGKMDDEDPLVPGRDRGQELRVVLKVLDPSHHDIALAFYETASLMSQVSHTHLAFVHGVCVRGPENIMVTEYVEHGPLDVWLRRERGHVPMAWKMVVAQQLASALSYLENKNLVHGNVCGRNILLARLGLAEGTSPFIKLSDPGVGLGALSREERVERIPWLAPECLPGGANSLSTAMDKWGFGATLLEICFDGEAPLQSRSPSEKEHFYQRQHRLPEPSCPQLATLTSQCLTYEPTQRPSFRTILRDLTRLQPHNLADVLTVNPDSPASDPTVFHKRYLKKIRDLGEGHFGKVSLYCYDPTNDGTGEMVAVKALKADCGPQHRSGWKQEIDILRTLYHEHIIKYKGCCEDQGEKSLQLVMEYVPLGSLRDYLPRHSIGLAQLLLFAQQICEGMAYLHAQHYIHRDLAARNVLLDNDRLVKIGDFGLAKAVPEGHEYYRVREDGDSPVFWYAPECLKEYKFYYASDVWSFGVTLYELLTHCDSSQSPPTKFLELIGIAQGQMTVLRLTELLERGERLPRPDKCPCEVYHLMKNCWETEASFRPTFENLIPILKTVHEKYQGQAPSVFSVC

Sequence of JH2 domain of human Tyk2 (P29597 575-876): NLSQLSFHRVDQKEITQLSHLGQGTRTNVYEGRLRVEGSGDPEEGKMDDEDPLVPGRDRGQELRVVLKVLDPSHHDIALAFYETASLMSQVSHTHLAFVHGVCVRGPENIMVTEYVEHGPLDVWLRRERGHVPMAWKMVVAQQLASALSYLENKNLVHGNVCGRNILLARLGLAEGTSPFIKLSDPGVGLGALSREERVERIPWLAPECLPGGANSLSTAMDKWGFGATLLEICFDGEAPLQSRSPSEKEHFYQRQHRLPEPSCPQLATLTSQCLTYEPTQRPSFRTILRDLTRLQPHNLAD

Structure (SMILES): CC(=O)Nc1cc(Nc2ccnc(C(C)(F)F)n2)c(-c2cnc(N3CCOCC3)cn2)cn1 [Example 844, N-(4-((2-(1,1-difluoroethyl)pyrimidin-4-yl)amino)-5-(5-morpholinopyrazin-2-yl)pyridin-2-yl)acetamide]
- IC50 [1]: ≤ 10 nM
- IC50 [2]: 10 to 100 nM

Structure (SMILES): CC(=O)Nc1cc(Nc2ccnc(C(C)(F)F)n2)c(-c2ccc(N3CCCC3)nn2)cn1 [Example 845, N-(4-((2-(1,1-difluoroethyl)pyrimidin-4-yl)amino)-5-(6-(pyrrolidin-1-yl)pyridazin-3-yl)pyridin-2-yl)acetamide]
- IC50 [1]: ≤ 10 nM
- IC50 [2]: ≤ 10 nM

Structure (SMILES): CCc1cc(Nc2cc(NC(C)=O)ncc2-c2ccc(COC)cn2)nc(C(C)(F)F)n1 [Example 846, N-(4′-((2-(1,1-difluoroethyl)-6-ethylpyrimidin-4-yl)amino)-5-(methoxymethyl)-[2,3′-bipyridin]-6′-yl)acetamide]
- IC50 [1]: ≤ 10 nM
- IC50 [2]: ≤ 10 nM

Structure (SMILES): CCc1cc(Nc2cc(NC(C)=O)ncc2-c2ncc(OC(F)F)cn2)nc(C(C)(F)F)n1 [Example 848, N-(4-((2-(1,1-difluoroethyl)-6-ethylpyrimidin-4-yl)amino)-5-(5-(difluoromethoxy)pyrimidin-2-yl)pyridin-2-yl)acetamide]
- IC50 [1]: ≤ 10 nM
- IC50 [2]: ≤ 10 nM

Structure (SMILES): CC(=O)Nc1cc(Nc2ccnc(C(C)(F)F)n2)c(-c2cnc(C#N)cn2)cn1 [Example 850, N-(5-(5-cyanopyrazin-2-yl)-4-((2-(1,1-difluoroethyl)pyrimidin-4-yl)amino)pyridin-2-yl)acetamide]
- IC50 [1]: ≤ 10 nM
- IC50 [2]: 100 to 1000 nM

Structure (SMILES): CC(=O)Nc1cc(Nc2ccnc(C(C)(F)F)n2)c(-c2ccc(C(C)(C)O)cn2)cn1 [Example 852, N-(4′-((2-(1,1-difluoroethyl)pyrimidin-4-yl)amino)-5-(2-hydroxypropan-2-yl)-[2,3′-bipyridin]-6′-yl)acetamide]
- IC50 [1]: ≤ 10 nM
- IC50 [2]: ≤ 10 nM

Structure (SMILES): CCc1cc(Nc2cc(NC(C)=O)ncc2-c2cnc(C(C)(C)O)cn2)nc(C(C)(F)F)n1 [Example 855, N-(4-((2-(1,1-difluoroethyl)-6-ethylpyrimidin-4-yl)amino)-5-(5-(2-hydroxypropan-2-yl)pyrazin-2-yl)pyridin-2-yl)acetamide]
- IC50 [1]: ≤ 10 nM
- IC50 [2]: ≤ 10 nM

Structure (SMILES): CCc1cc(Nc2cc(NC(C)=O)ncc2-c2cnc(N(C)C)cn2)nc(C(C)(F)F)n1 [Example 856, N-(4-((2-(1,1-difluoroethyl)-6-ethylpyrimidin-4-yl)amino)-5-(5-(dimethylamino)pyrazin-2-yl)pyridin-2-yl)acetamide]
- IC50 [1]: ≤ 10 nM
- IC50 [2]: 10 to 100 nM

Structure (SMILES): CC(=O)Nc1cc(Nc2ccnc(C(C)(F)F)n2)c(-c2ccc(OC(F)F)nn2)cn1 [Example 858, N-(4-((2-(1,1-difluoroethyl)pyrimidin-4-yl)amino)-5-(6-(difluoromethoxy)pyridazin-3-yl)pyridin-2-yl)acetamide]
- IC50 [1]: ≤ 10 nM
- IC50 [2]: 10 to 100 nM

Structure (SMILES): CCc1cc(Nc2cc(NC(C)=O)ncc2-c2cnc(NC)cn2)nc(C(C)(F)F)n1 [Example 860, N-(4-((2-(1,1-difluoroethyl)-6-ethylpyrimidin-4-yl)amino)-5-(5-(methylamino)pyrazin-2-yl)pyridin-2-yl)acetamide]
- IC50 [1]: 100 to 1000 nM
- IC50 [2]: ≥ 1000 nM

Structure (SMILES): CCc1cc(Nc2cc(NC(C)=O)ncc2-c2ccc(N(C)C)nn2)nc(C(C)(F)F)n1 [Example 862, N-(4-((2-(1,1-difluoroethyl)-6-ethylpyrimidin-4-yl)amino)-5-(6-(dimethylamino)pyridazin-3-yl)pyridin-2-yl)acetamide]
- IC50 [1]: ≤ 10 nM
- IC50 [2]: ≤ 10 nM

Structure (SMILES): CCc1cc(Nc2cc(NC(C)=O)ncc2-c2ccc(N3CCOCC3)nn2)nc(C(C)(F)F)n1 [Example 863, N-(4-((2-(1,1-difluoroethyl)-6-ethylpyrimidin-4-yl)amino)-5-(6-morpholinopyridazin-3-yl)pyridin-2-yl)acetamide]
- IC50 [1]: ≤ 10 nM
- IC50 [2]: ≤ 10 nM
